Measurements: patent US8802082B2, “Rhodamine derivatives for photodynamic diagnosis and treatment” (Université de Montreal, priority 1999, dated 2014)

Key:
K-562 cell line = test: In vitro phototoxicity, cell viability in the K-562 cell line procedure (argon ion laser 514.5 nm); assay type: cell-based
Method: To ascertain the photochemotherapeutic potential of 4, 5-dibromorhodamine 110 n-butyl ester hydrobromide (DBBE), in vitro phototoxicity was evaluated in the K-562 cell line procedure described. The cells were incubated with increasing concentrations of DBBE and the cell viability was measured at different time points following photodynamic therapy.
The photo toxicity in vitro of rhodamine B n-butyl ester (RBBE) was evaluated in the K-562 cell line procedure, in order to assess its photochemotherapeutic potential. Comparison was made to the induced phototoxicity of rhodamine 123 (RH123) and of rhodamine nB-butyl ester hydrochloride. Cell viability was evaluated 2 and 20 hours after photodynamic therapy. […] Rhodamine 123 has no effect on cell viability, even at exposures of 5 J/cm^2. Phototoxicity of 4,5-dibromorhodamine 110 n-butyl ester hydrobromide and rhodamine B n-butyl ester hydrochloride were only assessed against the cell line K562. However, we anticipate that their activity will be similar against T cells.

[1] = test system: normal mouse long term culture of bone marrow and hematopoietic colonies; test: Phototoxicity against hematopoietic progenitor cell cultures (long term culture of bone marrow, semi-solid colony assays); assay type: cell-based
Description: However, as reported for rhodamine 123, the LTC (Long Term Culture) establishment is more sensitive to the dyes but the number of viable committed precursor and stem cells remains unaffected. […] This is in agreement with results obtained previously in other laboratories using rhodamine 123.

SMILES	cell viability after photodynamic therapy (K-562 cell line; 10 μg/ml, 0.5 J/cm^2 at 514.5 nm, less than 24 hours after irradiation)	establishment of normal mouse long term culture of bone marrow and formation of hematopoietic colonies in semi-solid assays after photodynamic therapy [1]	cell viability of K562 cells after photodynamic therapy (K-562 cell line; 10 µg/ml, 5 J/cm^2 argon ion laser 514.5 nm, less than 20 hours after irradiation)	effect on cell viability (K-562 cell line; even at exposures of 5 J/cm^2)
Br.CCCCOC(=O)c1ccccc1-c1c2ccc(=N)c(Br)c-2oc2c(Br)c(N)ccc12 [DBBE, 4,5-dibromorhodamine 110 (2-(4,5-dibromo-6-amino-3-imino-3H-xanthen-9-yl)-benzoic acid) n-butyl ester hydrobromide]	completely suppress	minimally impaired	–	–
CCCCOC(=O)c1ccccc1-c1c2ccc(=NCC)cc-2oc2cc(N(CC)CC)ccc12.Cl [RBBE, Rhodamine B n-butyl ester (2-(6-diethyl amino-3-ethyl imino-3H-xanthen-9-yl)-benzoic acid) n-butyl diester hydrochloride]	–	minimally impaired	significantly suppress	–
COC(=O)c1ccccc1-c1c2ccc(=N)cc-2oc2cc(N)ccc12.Cl [Rhodamine 123, Rhodamine 123 (2-(6-amino-3-imino-3H-xanthen-9-yl)benzoic acid methyl ester) hydrochloride, reference compound]	–	minimally impaired	–	no effect
